Earlier results on one compound are cited in US20170112824A1, “COMBINATION THERAPIES FOR THE TREATMENT OF FUNGAL INFECTIONS” (priority 2015, published 2017).

For data set [1] the following is noted: in vivo.

Structures are written as SMILES.

As for `NC(=O)NO` [Hydroxyurea, hydroxyurea], the water solubility entry is given as “water-soluble”. Further, the absorption result in data set [1] is listed as “readily absorbed”.
